Measurements reported in patent US20060257935A1, “Hematopoietic factor production promoter” (Ajinomoto Co., Inc., priority 2005, published 2006).

How the values were obtained:
MC3T3-E1 cells = settings: cited from earlier work
[1] = system: porcine primary hepatocyte; settings: added to medium for porcine primary hepatocyte culture at a high concentration; cited from earlier work
[2] = Blood arginine concentration after oral administration to rats; type: in vivo, rat; settings: oral single-dose administration of arginine at 1.2 g/kg
normal rats = settings: repeated administration; cited from earlier work
[3] = system: activin (rat Inhibin betaA); assay: Activin mRNA quantification by quantitative PCR in bone marrow cells isolated from renal failure rat; type: cell-based; settings: 2 hours after addition of arginine, 400 μM or 600 μM vs 100 μM
Text: (§1) A renal failure rat (a rat from which ⅚ of kidney was removed) was produced as follows. A male Wistar rat at 8 weeks of age (Charles River Japan, Inc.) was subjected to the total extirpation of the right kidney and the ⅔ extirpation of the renal cortex of the left kidney under anesthesia with Nembutal and was sutured. After the surgery, the rat was housed under normal housing condition (CRF-1 diet, Charles River Japan, Inc.). Six weeks after the surgery the renal failure rat was killed by diethyl ether, then both femurs were excised and bone marrow cells were isolated. The isolated bone marrow cells were suspended in an IMDM medium with blood amino acid concentration containing 10% FCS. […]
(§2) The quantification of mRNA of each of the hematopoietic factors was determined by the quantitative PCR method mentioned below. Based on the sequences of activin (rat Inhibin betaA), SCF and IGF-1 registered in NCBI (GenBank accession Nos. M37482, NM021843, and NM178886, respectively in the order), oligonucleotide primers to be used for the quantitative PCR method were synthesized. […]
(§3) The quantitative PCR method was in accordance with the method described in SYBRGreen PCR kit (TOYOBO., Ltd.). […] After the quantitative PCR, the presence or absence and size of an amplified product were confirmed by agarose gel electrophoresis. […]

SCF = SCF mRNA quantification by quantitative PCR in bone marrow cells isolated from renal failure rat; type: cell-based; settings: 2 hours after addition of arginine, 400 μM or 600 μM vs 100 μM
Text: as §1, §2, §3

[4] = system: mouse bone marrow cells (CFU-E); assay: In vitro mouse CFU-E colony assay (methylcellulose semi-solid medium); type: cell-based
Method: An in vitro mouse CFU-E colony assay was conducted in accordance with the following method. After a female BDF-1 mouse at 10 weeks of age (Charles River Japan, Inc.) was killed by the cervical dislocation method, bone marrow cells were isolated from the femur and suspended in an IMDM medium (Invitrogen) containing 10% FCS (JRH Bioscience Inc). The bone marrow cells were centrifuged at 1500 rpm for 10 minutes at 4° C. and the precipitated bone marrow cells were resuspended in an amino acid-free IMDM medium and the number of cells was measured. […] At 28 hours after the culture was carried out under the condition of 37° C. and 5% CO2, the number of CFU-E colonies was measured using an inverted microscope. […] The data is expressed as a mean value±SEM. […]

[5] = system: patients with renal anemia; settings: cited from earlier work
IGF-1 = IGF-1 mRNA quantification by quantitative PCR in bone marrow cells isolated from renal failure rat; type: cell-based; settings: 2 hours after addition of arginine, 400 μM or 600 μM vs 100 μM
Text: as §1, §2, §3

N=C(N)NCCC[C@H](N)C(=O)O [arginine]
gene expression of IGF-1 (MC3T3-E1 cells; MC3T3-E1 cells, arginine added at a higher concentration): increases | secretion amount of IGF-1 (MC3T3-E1 cells; MC3T3-E1 osteoblast-like cell line): increases | gene expression of IGF-1 [1]: increases | blood arginine concentration [2]: about 600 μM | amount of hemoglobin and red blood cells (normal rats): increased | production of activin (relative mRNA level per total RNA) [3]: promotes the production | production of SCF (relative mRNA level per total RNA) (SCF): promotes the production | number of CFU-E colonies ([4]; 600 μM arginine added to isolated mouse bone marrow cells, compared with 170 μM): significantly increases | condition of anemia (number of red blood cells) [5]: improved | production of IGF-1 (relative mRNA level per total RNA) (IGF-1): promotes the production

O=C(O)[C@@H]1CCCN1 [proline]
gene expression of IGF-1 [1]: increases

C[C@@H](O)[C@H](N)C(=O)O [threonine]
gene expression of IGF-1 [1]: increases

N[C@@H](Cc1c[nH]c2ccccc12)C(=O)O [triptophan]
gene expression of IGF-1 [1]: increases

B1: follistatin: follistatin (FSN, anti-activin, R&D Co.), inhibitor for activin (protein, UniProt P19883 30-344, looked up)
Follistatin: GNCWLRQAKNGRCQVLYKTELSKEECCSTGRLSTSWTEEDVNDNTLFKWMIFNGGAPNCIPCKETCENVDCGPGKKCRMNKKNKPRCVCAPDCSNITWKGPVCGLDGKTYRNECALLKARCKEQPELEVQYQGRCKKTCRDVFCPGSSTCVVDQTNNAYCVTCNRICPEPASSEQYLCGNDGVTYSSACHLRKATCLLGRSIGLAYEGKCIKAKSCEDIQCTGGKKCLWDFKVGRGRCSLCDELCPDSKSDEPVCASDNATYASECAMKEAACSSGVLLEVKHSGSCNSISEDTEEEEEDEDQDYSFPISSILEW
inhibition of CFU-E-colony stimulating activity of arginine ([4]; follistatin 100 ng/ml, 600 μM arginine, 28 hours culture): inhibited
